# Data taken from US9993564B2, “Blood brain barrier shuttle” (Hoffmann-La Roche Inc., priority 2014, dated 2018).
# Experiments:
# [1] = in vivo phage display selection (4 rounds) with CSF sampling, sequencing of CSF recovered phage clones; design: species or system rat; settings: for Reads: CSF recovered phage clones after 4 rounds of in vivo selection in rats, 924 sequencing in total; for Frequency (%): frequency of each peptide related to the 924 total sequencing runs, CSF, after 4 rounds of in vivo selection in rats
# [2] = test system: brain blood vessels and capillaries; experiment: immunohistochemistry of intravenously administered phage clones bound to brain vasculature; assay type: in vivo; settings: FIG. 5, no staining with empty phage
# Source text: Specific phage clones were intravenously administered to allow targeting in vivo. Subsequently, immunohistochemistry was used to detect the phages specifically bound to the brain blood vessels and capillaries. […] ID. NO. 1, SEQ. ID. NO. 6 and SEQ. ID. NO.
# ID. NO. 8 is linked to SA through an N-terminal biotin. […] ID. NO.
Substance,Reads [1],Frequency (%) [1] [%],staining at brain capillaries in the cortex (immunohistochemistry) [2]
8 (RLSSVDSDLSGC; Brain targeting peptide) [compound 8],26,3.0,
17 (RRPAPLIMFRMI; Brain targeting peptide) [compound 17],9,1.0,
36 (LWVSVPRARIIQ; Brain targeting peptide) [compound 36],2,0.2,
15 (YSMVFVGIKL; Brain targeting peptide) [compound 15],10,1.2,
28 (GCASPASTSFHS; Brain targeting peptide) [compound 28],3,0.3,
24 (TWLFSLG; Brain targeting peptide) [compound 24],4,0.5,
23 (STVVCFKGVPTG; Brain targeting peptide) [compound 23],5,0.5,
4 (KVAWRVFSLFWK; Brain targeting peptide) [compound 4],57,6.1,
27 (STMRYVGVTCL; Brain targeting peptide) [compound 27],3,0.4,
20 (SGSGIGLDRWRV; Brain targeting peptide) [compound 20],7,0.7,
9 (IGTLTT; Brain targeting peptide) [compound 9],22,2.8,
3 (GFVRFRLSNTR; Brain targeting peptide) [compound 3],115,12.4,
32 (VRDWAYVYSTVL; Brain targeting peptide) [compound 32],2,0.2,
16 (DVAKVS; Brain targeting peptide) [compound 16],10,1.0,
25 (LPGGSPGHILVC; Brain targeting peptide) [compound 25],4,0.4,
1 (LYVLHSRGLWGFKL; Brain targeting peptide) [compound 1],147,15.9,
LYVLHSRGLWGFKL (displayed on T7 phage; Brain targeting peptide) [SEQ. ID. NO. 1],,,strong and specific staining
10 (YNQSLLQGYRYW; Brain targeting peptide) [compound 10],21,2.3,
2 (LGSVS; Brain targeting peptide) [compound 2],137,14.8,

Substance,Reads [1],Frequency (%) [1] [%],staining at brain capillaries in the cortex (immunohistochemistry) [2]
21 (WGCNGTEWRGLLGIKL; Brain targeting peptide) [compound 21],6,0.7,
26 (GWIPYDGGNRAR; Brain targeting peptide) [compound 26],4,0.4,
19 (SRYSIGGNNGVT; Brain targeting peptide) [compound 19],7,0.9,
12 (ISNRSHKGLMVG; Brain targeting peptide) [compound 12],16,1.8,
7 (MRWFFSHASQGR; Brain targeting peptide) [compound 7],28,3.1,
22 (NSHAMSC; Brain targeting peptide) [compound 22],5,0.6,
GRPQKINGARVC [SEQ. ID. NO. 6],,,strong and specific staining
14 (YAWGGGWVLQWF; Brain targeting peptide) [compound 14],12,1.6,
5 (SVHGV; Brain targeting peptide) [compound 5],40,6.1,
34 (AVES; Brain targeting peptide) [compound 34],2,0.2,
13 (DAAESVLVGTVR; Brain targeting peptide) [compound 13],15,1.7,
18 (DPQILMGVLRSIRGFGVKL; Brain targeting peptide) [compound 18],9,0.9,
6 (GRPQKINGARVC; Brain targeting peptide) [compound 6],29,4.3,
33 (TAVFSALSMLRG; Brain targeting peptide) [compound 33],2,0.2,
11 (RSTASTSYPFFF; Brain targeting peptide) [compound 11],17,2.2,
29 (LRPRGAFQRRDFKL; Brain targeting peptide) [compound 29],3,0.3,
31 (FLIQWGAVLSRG; Brain targeting peptide) [compound 31],2,0.3,
35 (RPRAQGAL; Brain targeting peptide) [compound 35],2,0.2,
30 (ELVHA; Brain targeting peptide) [compound 30],3,0.3,
